Read-outs that look alike come from different tables or passages of the source.
What was measured:
[1] = molecular target: T1, recombinant rat CyPA-GST fusion protein (Rattus norvegicus, UniProt P10111); test: Rotamase (prolyl peptidyl cis-trans isomerase) inhibition, chymotrypsin-coupled cuvette assay; assay type: biochemical
T1 construct: made in house; host or cells: E. coli BL21
From the text: (§1) A number of substrates for rotamase are known in the art or can be derived from those known. Typically, the substrate contacts a sample containing a protein with rotamase activity and the conversion of the substrate is detected after a period of time. The method for detecting conversion of the substrate will vary with the particular substrate chosen. One method has been termed the Ki test (See Harding, et al., Nature, 341:758-760 (1989). The cis-trans isomerization of an alanine-proline bond in a model substrate, N-succinyl-Ala-Ala-Pro-Phe-p-nitroanilide, is monitored spectrophotometrically in a chymotrypsin-coupled assay. The action of chymotrypsin releases p-nitroaniline from only the trans form of the substrate. The amount of p-nitroaniline can be monitored in a spectrophotometer, for example. Other methods of detecting the presence of p-nitroaniline can also be used. The inhibition of this reaction caused by different concentrations of inhibitor is determined and the data are analyzed as a change in first-order rate constant as a function of inhibitor concentration, which yields the Ki value.
(§2) The following were added to a plastic cuvette: […] of ice cold assay buffer (25 mM HEPES, pH 7.8, 100 mM NaCl), 10 μL of CyP A (2.5 μM in 10 mM Tris-Cl pH 7.5, 100 mM NaCl, 1 mM dithiothreitol), 25 μL of chymotrypsin (50 mg/ml in 1 mM HCl), and 10 μL of test compound, at various concentrations, in dimethyl sulfoxide. The reaction was initiated by the addition of 5 μL of substrate (succinyl-Ala-Phe-Pro-Phe-para-nitroanilide, 5 mg/mL in 470 mM LiCl in trifluoroethanol). The absorbance at 390 nm versus time was monitored for 90 seconds using a spectrophotometer and the rate constants were determined from the absorbance versus time data files.
(§3) The IC50 values that were obtained for representative compounds in the following Table I refer to the concentration that inhibits 50% of the rotamase activity in a sample. […] The Cyclophilin utilized was a recombinant rat CyPA-GST fusion protein: CypA was amplified from rat brain cDNA using standard PCR methods, primed with the following sequences: 5′ CCCCCCGGGAGTCAACCCCACCGTGTTCTTCGA 3′ and 5′ GGAGATCTAGAGTTGTCCACAGTCGGAGATGGT 3′. The resulting fragment (573 base pairs) was cloned into pCRII and amplified. The CyP sequence was cut out with Smal and EcoRl and cloned into the Smal/EcoRl sites in pGEX2TK (Pharmacia). This plasmid was transformed into BL21 E. coli cells for expression of the GST-CyPA fusion protein.

[2] = molecular target: T2, human recombinant CyPA (Homo sapiens, UniProt P62937); test: Rotamase inhibition, chymotrypsin-coupled cuvette assay (asterisked values); assay type: biochemical
T2 sequence (P62937 whole entry): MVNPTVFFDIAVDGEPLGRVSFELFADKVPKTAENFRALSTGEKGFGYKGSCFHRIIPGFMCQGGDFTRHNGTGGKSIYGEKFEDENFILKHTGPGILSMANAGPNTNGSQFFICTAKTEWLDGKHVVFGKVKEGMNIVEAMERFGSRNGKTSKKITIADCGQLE
From the text: as §1, §2, §3

[3] = tested on: striatal tyrosine hydroxylase-immunoreactive fibres; test: MPTP-lesioned mouse model of Parkinson's disease, striatal TH fiber density; assay type: in vivo; conditions: 10 mg/kg s.c. in Intralipid once daily days 1-5, one hour prior to MPTP; analysis day seven
From the text: MPTP (N-methyl-4-phenyl-1,2,3,6-tetrahydropyridine) is a systemically available neurotoxin specific to nigrostriatal dopaminergic neurons, i.e. to the cells that degenerate in human Parkinson's disease. Administration of MPTP to mice leads to a selective partial destruction of the mesotelencephalic dopaminergic projection, and to a loss of dopamine and dopaminergic fibres in the corpus striatum, which is the main forebrain target of midbrain dopaminergic neurons.
Young adult male CD1 albino mice (Harlan—Sprague Dawley; 22-25 g) were dosed i.p. with the dopamine cell-specific neurotoxin N-methyl-4-phenyl-1,2,3,6-tetrahydropyridine (MPTP hydrochloride, calculated as 34 mg/kg free base), dissolved in saline at a concentration of 3.4 mg/ml free base once daily on days one to five. […]
Blinded analysis of TH fiber density in the central striatum was performed at 630× magnification. […] The percentage of sample field covered by TH positive processes and terminals was calculated using an image analysis program (“Simple,” Compix Inc., Pittsburgh, Pa.). The mean striatal innervation density was calculated for each group. The magnitude of striatal deafferentation due to the MPTP lesion was assessed by dividing the observed striatal innervation values obtained in MPTP/vehicle treated cases by the mean striatal innervation density in the Vehicle/Vehicle group and expressed as % loss. […]

[4] = molecular target: T2, human recombinant CyPA; test: Semiautomated microtiter plate assay of rotamase activity inhibition; assay type: biochemical; conditions: 30 minute preincubation at 4° C., read-out: IC50 (rotamase inhibition, modified plate reader assay)
Experimental: Semiautomated Assay of Rotamase Activity Inhibition: Rotamase inhibition was determined using a semiautomated microtiter plate assay modification of the above described assay [see Küillertz et al., Clin. Chem. 44, 502-508 (1998)]. All dilutions of CyPA, peptide substrate, and chymotrypsin were made in 35 mM ice-cold HEPES buffer. Fifty μL of CyPA solution were added to 50 μL of peptide substrate solution (Phe-Pro-Phe p-nitroanilide, 0.16 mg/ml) in a glass microtiter well plate (the concentration of human recombinant CyP being adjusted so that the reaction rate is increased by a factor of 3 as compared to an uncatalyzed control reaction wherein the peptide substrate is degraded by chymotrypsin alone, in the absence of CyPA and test compound). Using a Beckman Multimek™ 96 automated 96-channel pipettor, 5 μL of test compound solution, or a DMSO blank, were added to each well for a 30 minute preincubation at 4° C. One hundred μL of chymotrypsin solution (1 mg/mL) were added to each well and the absorbance at 390 nm versus time was monitored for 9-10 minutes using a BioRad Ultramark plate reader maintained at 4° C. and the rate constants were determined from the absorbance versus time data files. The cyclophilin utilized was a human recombinant CyPA [Yoo et al., J. Mol. Biol., 269 (1997) 780-95].
IC50 values which were obtained for representative compounds using this modified plate reader assay of rotamase inhibition are given in the following Table II: […]

[5] = human recombinant CyPA, values with asterisk, read-out: IC50 (rotamase activity)

T1 sequence (P10111 2-164): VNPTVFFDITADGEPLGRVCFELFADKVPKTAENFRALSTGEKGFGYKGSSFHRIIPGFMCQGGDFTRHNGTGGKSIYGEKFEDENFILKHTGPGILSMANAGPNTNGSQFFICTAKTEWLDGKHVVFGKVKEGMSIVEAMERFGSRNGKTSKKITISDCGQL

Compound | IC50 [4] [nM] | IC50 [2, 5] [nM] | also measured
O=C(Nc1cccc(N(S(=O)(=O)c2ccc3ccccc3c2)S(=O)(=O)c2ccc3ccccc3c2)c1)c1cc(Cl)cc(Cl)c1 [Compound 8] | – | – | IC50 [1]: 701 nM; IC50 [2]: 804 nM
O=C(Nc1cccc(N(S(=O)(=O)c2cc(Cl)cc(Cl)c2)S(=O)(=O)c2cc(Cl)cc(Cl)c2)c1)c1cc(Cl)cc(Cl)c1 [Compound 8a] | – | – | IC50 [1]: 364 nM; protection of striatal tyrosine hydroxylase-immunoreactive fibres [3]: 37,2%
S=C(Nc1cc(Cl)cc(Cl)c1)Nc1cccc(C=NN(c2ccccc2)c2ccccc2)c1 [Compound 21, ({3-[2-aza-2-(diphenylamino)vinyl]phenyl}amino)[(3,5-dichlorophenyl)amino]methane-1-thione] | – | 512 | –
O=S(=O)(Oc1cccc(NC(=S)Nc2cc(Cl)cc(Cl)c2)c1)c1c(F)c(F)c(F)c(F)c1F [Compound 22, 3-({[(3,5-dichlorophenyl)amino]thioxomethyl}amino)phenyl 2,3,4,5,6-pentafluorobenzenesulfonate] | – | 733 | –
O=C(NNC(=O)c1cccc(NC(=O)c2cccc(OCc3ccccc3)c2)c1)c1cc(Cl)cc(Cl)c1 [Compound 30, 1-{3-[(3-Benzyloxy)phenylcarboxamido]benzoyl}-2-(3,5-dichlorobenzoyl)hydrazine] | 3760 | 464 | –
O=C(CCCCc1ccccc1)Nc1cccc(C(=O)NNC(=S)NC23CC4CC(CC(C4)C2)C3)c1 [Compound 41, 1-[(6-Phenyl-1-aza-2-oxo)hexyl]-3-{[(adamant-1-yl)-1-oxo-2,3,5-triaza-4-thio]pentyl}-benzene] | 5190 | – | –
O=C(CCCCc1ccccc1)Nc1cccc(NC(=O)CC(=O)Nc2ccc(Cl)c(Cl)c2)c1 [Compound 42, 1-[(6-Phenyl-1-aza-2-oxo)hexyl]-3-{[5-(3,4-dichlorophenyl)-1,5-diaza-2,4-oxo]pentyl}-benzene] | 6090 | – | –
L-N-[3-(6-Phenylhexanoylamino)benzoyl]proline 3,4-dichlorobenzamide [Compound 36] | 9050 | – | –

More lines, in order of falling IC50 [4], values ahead:

IC50 [4] [nM] | IC50 [2, 5] [nM] | Compound | also measured
2800 | – | O=C(CCCCc1ccccc1)Nc1cccc(-c2nnc(Nc3ccc(Cl)c(Cl)c3)s2)c1 [Compound 40A, 5-Phenyl-pentanoic acid {3-[5-(3,4-dichloro-phenylamino)-[1,3,4]thiadiazol-2-yl]-phenyl}-amide] | –
2710 | 974 | O=C(NNS(=O)(=O)c1ccc(Cl)c(Cl)c1)c1cccc(NC(=O)c2cccc(OCc3ccccc3)c2)c1 [Compound 31, 1-{3-[(3-Benzyloxy)phenylcarboxamido]benzoyl}-2-(3,4-dichlorobenzenesulfonyl)hydrazine] | –
2060 | – | S=C(Nc1ccc(I)cc1)NC1CCCCC1NC(=S)Nc1ccc(I)cc1 (stereo not drawn) [Compound 13, [(4-iodophenyl)amino]{[2-({[(4-iodophenyl)amino]thioxomethyl}amino)cyclohexyl]amino}methane-1-thione] | IC50 ([1]; recombinant rat CyPA-GST fusion protein, values without asterisk, read-out: IC50 (rotamase activity)): 680 nM
1570 | – | O=C(CCCCc1ccccc1)Nc1ccc(C(=O)NNC(=S)Nc2ccc(Cl)c(Cl)c2)cc1 [Compound 43, 1-{4-[(5-Phenyl)pentanoylamino]benzoyl}-4-(3,4-dichlorophenyl)thiosemicarbazide] | –
883 | – | O=C(CCCCc1ccccc1)Nc1cccc(-c2nnc(Nc3ccc(Cl)c(Cl)c3)o2)c1 [Compound 40B, 5-Phenyl-pentanoic acid {3-[5-(3,4-dichloro-phenylamino)-[1,3,4]oxadiazol-2-yl]-phenyl}-amide] | –
713 | 85 | O=C(CCCCc1ccccc1)Nc1cccc(C(=O)NNC(=S)Nc2ccc(Cl)c(Cl)c2)c1 [Compound 33, 1-{3-[(5-Phenyl)valeroylamino]benzoyl}-4-(3,4-dichlorophenyl)thiosemicarbazide] | –
130 | – | O=C(CCCCCc1cccc(C(F)(F)F)c1)Nc1cccc(S(=O)(=O)NC(=S)Nc2ccc(Cl)c(Cl)c2)c1 [Compound 45] | –

Source: patent US20020127605A1 (priority 2000, published 2002)
